Drawing on ChEMBL document CHEMBL3400143, “Discovery and hit-to-lead optimization of 2,6-diaminopyrimidine inhibitors of interleukin-1 receptor-associated kinase 4” (Bioorg Med Chem Lett, 2015), this text covers inhibition and IC50 for 18 molecules.

Calls of active or inactive are those of the source. No cut-off for these calls is given here.

In experiment [1] the target is Receptor-type tyrosine-protein kinase FLT3 (Homo sapiens) (UniProt P36888). Put plainly: Inhibition of FLT3 (unknown origin).
Receptor-type tyrosine-protein kinase FLT3 (Homo sapiens), sequence (P36888 whole entry): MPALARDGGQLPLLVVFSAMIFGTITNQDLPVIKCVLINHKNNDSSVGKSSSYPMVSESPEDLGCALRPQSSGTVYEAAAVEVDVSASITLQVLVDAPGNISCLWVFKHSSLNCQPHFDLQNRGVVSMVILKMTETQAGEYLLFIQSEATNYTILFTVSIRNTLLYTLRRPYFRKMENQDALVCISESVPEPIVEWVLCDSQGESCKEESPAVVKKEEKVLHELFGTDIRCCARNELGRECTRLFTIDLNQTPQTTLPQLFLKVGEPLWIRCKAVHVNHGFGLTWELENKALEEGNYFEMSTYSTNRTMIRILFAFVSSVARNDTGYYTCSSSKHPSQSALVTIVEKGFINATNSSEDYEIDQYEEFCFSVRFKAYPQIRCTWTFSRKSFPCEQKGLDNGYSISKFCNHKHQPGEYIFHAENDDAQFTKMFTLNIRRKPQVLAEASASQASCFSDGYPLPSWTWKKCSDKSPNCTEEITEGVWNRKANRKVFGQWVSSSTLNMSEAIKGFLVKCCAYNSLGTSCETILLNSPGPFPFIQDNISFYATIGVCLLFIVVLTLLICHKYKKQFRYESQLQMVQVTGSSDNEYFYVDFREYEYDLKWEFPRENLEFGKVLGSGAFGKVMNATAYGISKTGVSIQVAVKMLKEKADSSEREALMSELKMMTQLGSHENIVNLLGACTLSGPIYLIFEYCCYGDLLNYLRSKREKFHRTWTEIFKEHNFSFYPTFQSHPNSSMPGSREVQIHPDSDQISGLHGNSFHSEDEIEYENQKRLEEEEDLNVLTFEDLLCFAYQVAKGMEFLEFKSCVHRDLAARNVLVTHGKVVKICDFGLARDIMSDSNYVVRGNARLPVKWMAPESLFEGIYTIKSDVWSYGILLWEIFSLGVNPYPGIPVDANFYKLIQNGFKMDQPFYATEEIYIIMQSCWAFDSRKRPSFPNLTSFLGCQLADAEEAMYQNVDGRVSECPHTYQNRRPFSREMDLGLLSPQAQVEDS
The target in experiment [2] is High affinity nerve growth factor receptor (Homo sapiens) (UniProt P04629). Put plainly: Inhibition of TRKA (unknown origin).
High affinity nerve growth factor receptor (Homo sapiens), sequence (P04629 33-796 limits assumed): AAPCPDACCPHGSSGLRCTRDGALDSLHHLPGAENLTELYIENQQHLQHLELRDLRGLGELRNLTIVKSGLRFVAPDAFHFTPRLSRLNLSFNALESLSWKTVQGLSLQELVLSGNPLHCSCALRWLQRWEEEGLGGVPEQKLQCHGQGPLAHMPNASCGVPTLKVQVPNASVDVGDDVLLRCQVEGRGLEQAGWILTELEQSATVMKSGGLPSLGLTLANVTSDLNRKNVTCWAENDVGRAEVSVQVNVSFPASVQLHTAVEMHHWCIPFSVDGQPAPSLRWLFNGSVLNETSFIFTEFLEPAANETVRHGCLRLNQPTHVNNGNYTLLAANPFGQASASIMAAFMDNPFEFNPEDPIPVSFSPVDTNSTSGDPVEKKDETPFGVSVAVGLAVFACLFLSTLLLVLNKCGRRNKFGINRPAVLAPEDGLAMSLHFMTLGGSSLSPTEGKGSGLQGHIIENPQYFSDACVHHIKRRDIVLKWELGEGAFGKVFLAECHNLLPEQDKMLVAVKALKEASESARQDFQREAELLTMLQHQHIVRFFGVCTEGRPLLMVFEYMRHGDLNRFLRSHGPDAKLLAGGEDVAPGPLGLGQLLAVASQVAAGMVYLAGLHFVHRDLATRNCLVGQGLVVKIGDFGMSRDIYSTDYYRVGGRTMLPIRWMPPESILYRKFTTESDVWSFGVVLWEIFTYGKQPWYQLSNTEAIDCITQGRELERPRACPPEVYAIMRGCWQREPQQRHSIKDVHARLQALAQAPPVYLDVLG
Experiment [3] addresses Dual specificity protein kinase CLK4 (Homo sapiens) (UniProt Q9HAZ1). Description: Inhibition of CLK4 (unknown origin).
The target of experiment [4] is NT-3 growth factor receptor (Homo sapiens) (UniProt Q16288). Put plainly: Inhibition of TRKC (unknown origin).
NT-3 growth factor receptor (Homo sapiens), sequence (Q16288 32-839 limits assumed): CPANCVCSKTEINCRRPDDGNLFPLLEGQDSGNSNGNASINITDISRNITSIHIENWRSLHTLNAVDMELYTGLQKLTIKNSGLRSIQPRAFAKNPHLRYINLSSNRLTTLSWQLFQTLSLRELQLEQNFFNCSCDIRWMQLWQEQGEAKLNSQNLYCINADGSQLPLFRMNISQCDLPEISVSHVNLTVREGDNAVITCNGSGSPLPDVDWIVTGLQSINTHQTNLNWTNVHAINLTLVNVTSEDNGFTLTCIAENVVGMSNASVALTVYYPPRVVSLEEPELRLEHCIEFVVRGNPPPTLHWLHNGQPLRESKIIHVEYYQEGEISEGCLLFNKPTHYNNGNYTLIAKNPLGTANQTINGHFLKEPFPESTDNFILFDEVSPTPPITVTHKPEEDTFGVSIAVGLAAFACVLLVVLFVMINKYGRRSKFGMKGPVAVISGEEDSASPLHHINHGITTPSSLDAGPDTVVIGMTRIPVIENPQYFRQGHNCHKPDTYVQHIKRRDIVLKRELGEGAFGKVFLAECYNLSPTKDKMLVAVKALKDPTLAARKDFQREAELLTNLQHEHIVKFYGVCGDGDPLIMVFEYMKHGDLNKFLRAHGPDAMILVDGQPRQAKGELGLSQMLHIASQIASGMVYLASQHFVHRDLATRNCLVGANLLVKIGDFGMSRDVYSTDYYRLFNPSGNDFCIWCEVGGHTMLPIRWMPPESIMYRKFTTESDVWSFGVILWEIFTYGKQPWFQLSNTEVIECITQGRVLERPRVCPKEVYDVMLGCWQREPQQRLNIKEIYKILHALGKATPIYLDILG
Experiment [5] has as its target Mitogen-activated protein kinase kinase kinase kinase 4 (Homo sapiens) (UniProt O95819). Put plainly: Inhibition of MAP4K4 (unknown origin).
Experiment [6] has as its target T1, Interleukin-1 receptor-associated kinase 4 (Homo sapiens, UniProt Q9NWZ3).
T1 sequence (Q9NWZ3 whole entry): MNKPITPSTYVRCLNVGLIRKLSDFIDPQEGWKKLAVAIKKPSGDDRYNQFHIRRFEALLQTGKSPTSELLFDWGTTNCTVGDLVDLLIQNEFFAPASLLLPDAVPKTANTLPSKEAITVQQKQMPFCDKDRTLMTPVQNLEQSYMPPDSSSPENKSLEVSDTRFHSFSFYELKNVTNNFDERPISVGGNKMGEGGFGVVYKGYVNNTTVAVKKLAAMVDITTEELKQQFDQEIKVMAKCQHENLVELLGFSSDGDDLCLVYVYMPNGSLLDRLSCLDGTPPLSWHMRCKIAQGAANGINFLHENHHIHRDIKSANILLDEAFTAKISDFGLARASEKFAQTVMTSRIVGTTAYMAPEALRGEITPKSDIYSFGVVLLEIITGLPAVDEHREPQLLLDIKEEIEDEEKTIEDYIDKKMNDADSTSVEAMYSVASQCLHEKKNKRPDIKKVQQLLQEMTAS
Put plainly: Inhibition of N-terminal GST tagged human recombinant full-length IRAK4 expressed in Sf9 insect cells assessed as reduction in substrate phosphorylation using RP7030 peptide substrate and ATP incubated for 30 mins fluorescence polarization assay.

In experiment [7] the target is BDNF/NT-3 growth factors receptor (Homo sapiens) (UniProt Q16620). Put plainly: Inhibition of TRKB (unknown origin).
BDNF/NT-3 growth factors receptor (Homo sapiens), sequence (Q16620 32-822 limits assumed): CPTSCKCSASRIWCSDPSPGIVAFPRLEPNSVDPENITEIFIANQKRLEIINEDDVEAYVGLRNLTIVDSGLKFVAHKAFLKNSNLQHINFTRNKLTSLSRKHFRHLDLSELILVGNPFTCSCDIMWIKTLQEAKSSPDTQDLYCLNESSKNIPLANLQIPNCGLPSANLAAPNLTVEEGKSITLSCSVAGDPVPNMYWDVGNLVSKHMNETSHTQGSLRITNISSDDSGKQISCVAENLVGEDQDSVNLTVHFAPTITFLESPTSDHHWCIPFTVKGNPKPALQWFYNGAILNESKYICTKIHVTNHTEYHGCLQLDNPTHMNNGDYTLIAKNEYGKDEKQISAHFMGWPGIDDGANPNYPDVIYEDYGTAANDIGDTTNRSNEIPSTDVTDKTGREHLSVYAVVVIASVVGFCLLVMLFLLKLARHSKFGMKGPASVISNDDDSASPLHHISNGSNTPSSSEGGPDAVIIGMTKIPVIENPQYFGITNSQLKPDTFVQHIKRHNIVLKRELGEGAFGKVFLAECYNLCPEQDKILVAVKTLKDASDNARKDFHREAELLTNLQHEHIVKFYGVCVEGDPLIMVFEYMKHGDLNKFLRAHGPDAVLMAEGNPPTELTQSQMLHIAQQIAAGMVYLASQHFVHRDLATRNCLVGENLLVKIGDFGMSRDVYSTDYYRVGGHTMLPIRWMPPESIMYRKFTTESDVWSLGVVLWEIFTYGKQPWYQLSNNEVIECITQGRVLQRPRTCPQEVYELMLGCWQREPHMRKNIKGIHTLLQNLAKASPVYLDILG

Mitogen-activated protein kinase kinase kinase kinase 4 (Homo sapiens), sequence (O95819 2-1239 limits assumed): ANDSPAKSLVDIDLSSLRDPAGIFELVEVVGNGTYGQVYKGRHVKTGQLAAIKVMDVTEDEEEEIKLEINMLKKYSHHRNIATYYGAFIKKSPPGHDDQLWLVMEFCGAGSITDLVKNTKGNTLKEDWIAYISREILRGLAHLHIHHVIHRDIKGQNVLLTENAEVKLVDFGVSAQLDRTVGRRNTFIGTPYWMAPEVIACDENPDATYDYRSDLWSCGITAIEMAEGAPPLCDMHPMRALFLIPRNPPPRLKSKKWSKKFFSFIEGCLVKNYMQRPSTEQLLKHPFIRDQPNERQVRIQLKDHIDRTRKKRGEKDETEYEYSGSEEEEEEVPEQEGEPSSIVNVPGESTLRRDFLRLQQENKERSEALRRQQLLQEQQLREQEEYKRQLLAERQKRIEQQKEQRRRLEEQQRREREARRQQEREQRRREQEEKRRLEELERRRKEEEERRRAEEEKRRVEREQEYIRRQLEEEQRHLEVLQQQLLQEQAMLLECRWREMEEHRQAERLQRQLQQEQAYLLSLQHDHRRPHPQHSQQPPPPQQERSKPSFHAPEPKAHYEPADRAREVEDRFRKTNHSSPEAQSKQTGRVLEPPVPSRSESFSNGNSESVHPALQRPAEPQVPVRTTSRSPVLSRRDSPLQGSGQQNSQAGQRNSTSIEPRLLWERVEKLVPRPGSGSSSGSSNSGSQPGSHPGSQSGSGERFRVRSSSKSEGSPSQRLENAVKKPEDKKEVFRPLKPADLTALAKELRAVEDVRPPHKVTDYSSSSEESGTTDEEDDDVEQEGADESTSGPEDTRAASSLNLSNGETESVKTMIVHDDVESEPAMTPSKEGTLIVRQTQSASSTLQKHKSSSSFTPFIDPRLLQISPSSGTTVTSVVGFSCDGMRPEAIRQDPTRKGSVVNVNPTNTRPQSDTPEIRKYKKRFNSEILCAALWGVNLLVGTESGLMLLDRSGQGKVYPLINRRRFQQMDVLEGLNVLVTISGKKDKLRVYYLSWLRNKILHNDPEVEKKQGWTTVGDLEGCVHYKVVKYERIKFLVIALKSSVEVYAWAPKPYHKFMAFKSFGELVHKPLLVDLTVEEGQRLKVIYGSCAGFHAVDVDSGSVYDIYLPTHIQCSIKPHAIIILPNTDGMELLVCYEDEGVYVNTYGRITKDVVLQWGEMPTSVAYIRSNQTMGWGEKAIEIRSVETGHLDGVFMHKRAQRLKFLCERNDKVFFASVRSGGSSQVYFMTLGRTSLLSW
Dual specificity protein kinase CLK4 (Homo sapiens), sequence (Q9HAZ1 whole entry, looked up): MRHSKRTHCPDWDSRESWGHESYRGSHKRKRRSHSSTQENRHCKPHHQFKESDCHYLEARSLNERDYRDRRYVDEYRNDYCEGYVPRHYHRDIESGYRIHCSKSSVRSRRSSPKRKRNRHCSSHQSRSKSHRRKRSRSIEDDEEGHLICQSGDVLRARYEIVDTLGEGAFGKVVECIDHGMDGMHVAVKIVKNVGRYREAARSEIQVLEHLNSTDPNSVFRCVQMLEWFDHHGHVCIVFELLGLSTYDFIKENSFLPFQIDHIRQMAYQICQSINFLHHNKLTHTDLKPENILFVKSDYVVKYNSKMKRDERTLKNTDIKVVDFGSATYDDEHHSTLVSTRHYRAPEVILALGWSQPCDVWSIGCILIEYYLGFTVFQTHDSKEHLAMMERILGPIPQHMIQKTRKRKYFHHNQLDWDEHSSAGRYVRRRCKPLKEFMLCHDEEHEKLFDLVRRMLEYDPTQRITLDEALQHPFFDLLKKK

Consider `Nc1ncc(-c2nccs2)c(N[C@@H]2C[C@H](CO)[C@@H](O)[C@H]2O)n1`, for which the inhibition entry in experiment [1], in experiment [2], in experiment [3], in experiment [4], in experiment [5] and in experiment [7] was “Active” in each case. The concentration for half-maximal inhibition (IC50) in experiment [6] came to 4700 nM.

As for `Nc1ncc(-c2ccccn2)c(N[C@@H]2C[C@H](CO)[C@@H](O)[C@H]2O)n1`, the inhibition result in experiment [1], in experiment [2], in experiment [3], in experiment [4], in experiment [5] and in experiment [7] was “Active” in each case. The IC50 in experiment [6] turned out to be 830 nM.

On to `Nc1nc(N[C@@H]2C[C@H](CO)[C@@H](O)[C@H]2O)c(-c2nc3ccccc3s2)c(C(F)(F)F)n1`, for which the inhibition entry in experiment [1], in experiment [2], in experiment [3], in experiment [4], in experiment [5] and in experiment [7] was “Active” throughout. Moreover, the 50% inhibitory concentration (IC50) in experiment [6] was over 20000 nM.

As for `Nc1ncc(-c2ccccc2)c(N[C@@H]2C[C@H](CO)[C@@H](O)[C@H]2O)n1`, the inhibition result in experiment [1], in experiment [2], in experiment [3], in experiment [4], in experiment [5] and in experiment [7] was “Active” each time. In experiment [6], the IC50 is over 20000 nM.

With `OC[C@H]1C[C@@H](Nc2nc(NCC3CC3)ncc2-c2nc3ccccc3s2)[C@H](O)[C@@H]1O`, the inhibition result in experiment [1], in experiment [2], in experiment [3], in experiment [4], in experiment [5] and in experiment [7] was “Active” each time. Moreover, the IC50 in experiment [6] turned out to be 333 nM.

With `Nc1nc(Cl)c(-c2nc3ccccc3s2)c(N[C@@H]2C[C@H](CO)[C@@H](O)[C@H]2O)n1`, the inhibition result in experiment [1], in experiment [2], in experiment [3], in experiment [4], in experiment [5] and in experiment [7] was “Active” throughout. In experiment [6], the IC50 was 170 nM.

As for `CCCNc1nc(C)c(-c2nc3ccccc3s2)c(N[C@@H]2C[C@H](CO)[C@@H](O)[C@H]2O)n1`, the inhibition entry in experiment [1], in experiment [2], in experiment [3], in experiment [4], in experiment [5] and in experiment [7] was “Active” each time. Moreover, the IC50 in experiment [6] is 240 nM.

Turning to `Nc1ncc(-c2nc3cccnc3s2)c(N[C@@H]2C[C@H](CO)[C@@H](O)[C@H]2O)n1`, the inhibition result in experiment [1], in experiment [2], in experiment [3], in experiment [4], in experiment [5] and in experiment [7] was “Active” throughout. In experiment [6], the IC50 was 530 nM.

On to `Nc1nc(N[C@@H]2C[C@H](CO)[C@@H](O)[C@H]2O)c(-c2nc3ccccc3s2)c(C2CC2)n1`, for which the inhibition result in experiment [1], in experiment [2], in experiment [3], in experiment [4], in experiment [5] and in experiment [7] was “Active” in each case. In addition, the IC50 in experiment [6] is over 20000 nM.

With `Cc1cc(Nc2ncc(-c3nc4ccncc4s3)c(N[C@@H]3C[C@H](CO)[C@@H](O)[C@H]3O)n2)cc(C)n1`, the inhibition entry in experiment [1], in experiment [2], in experiment [3], in experiment [4], in experiment [5] and in experiment [7] was “Active” in each case. Moreover, the half-inhibitory concentration (IC50) in experiment [6] is 300 nM.

With `Nc1ncc(-c2ncc(-c3ccccc3)s2)c(N[C@@H]2C[C@H](CO)[C@@H](O)[C@H]2O)n1`, the inhibition entry in experiment [1], in experiment [2], in experiment [3], in experiment [4], in experiment [5] and in experiment [7] was “Active” each time. In experiment [6], the 50% inhibitory concentration (IC50) is over 20000 nM.

Take `CCc1nc(N)nc(N[C@@H]2C[C@H](CO)[C@@H](O)[C@H]2O)c1-c1nc2ccccc2s1`: the inhibition entry in experiment [1], in experiment [2], in experiment [3], in experiment [4], in experiment [5] and in experiment [7] was “Active” in each case. For the same molecule, in experiment [6], the IC50 worked out at 6850 nM.

Turning to `Nc1ncc(-c2cnc3ccccn23)c(N[C@@H]2C[C@H](CO)[C@@H](O)[C@H]2O)n1`, the inhibition entry in experiment [1], in experiment [2], in experiment [3], in experiment [4], in experiment [5] and in experiment [7] was “Active” each time. The IC50 in experiment [6] turned out to be 1140 nM.

`Nc1ncc(-c2nc3ccncc3s2)c(N[C@@H]2C[C@H](CO)[C@@H](O)[C@H]2O)n1`: the inhibition result in experiment [1], in experiment [2], in experiment [3], in experiment [4], in experiment [5] and in experiment [7] was “Active” throughout.

For the molecule `Nc1ncc(-c2nc(-c3ccccc3)cs2)c(N[C@@H]2C[C@H](CO)[C@@H](O)[C@H]2O)n1`, the inhibition result in experiment [1], in experiment [2], in experiment [3], in experiment [4], in experiment [5] and in experiment [7] was “Active” throughout.

As to `Nc1ncc(-c2nc3cnccc3s2)c(N[C@@H]2C[C@H](CO)[C@@H](O)[C@H]2O)n1`, the inhibition entry in experiment [1], in experiment [2], in experiment [3], in experiment [4], in experiment [5] and in experiment [7] was “Active” throughout.

For `Nc1ncc(-c2nc3ccccc3o2)c(N[C@@H]2C[C@H](CO)[C@@H](O)[C@H]2O)n1`, the inhibition entry in experiment [1], in experiment [2], in experiment [3], in experiment [4], in experiment [5] and in experiment [7] was “Active” in each case.

As for `Nc1ncc(-c2ccc3ccccc3n2)c(N[C@@H]2C[C@H](CO)[C@@H](O)[C@H]2O)n1`, the inhibition entry in experiment [1], in experiment [2], in experiment [3], in experiment [4], in experiment [5] and in experiment [7] was “Active” throughout.
